# Experimental data taken from ChEMBL document CHEMBL1157697, “Novel ester and acid derivatives of the 1,5-diarylpyrrole scaffold as anti-inflammatory and analgesic agents. Synthesis and in vitro and in vivo biological evaluation” (J Med Chem, 2010).
# The source made the active and inactive calls. No cut-off for these calls is given here.
# Key:
# Mus musculus [1] = species: Mus musculus; assay: Selectivity index, ratio of IC50 for mouse COX1 to IC50 for mouse COX2
# Rattus norvegicus [2] = assay: Antiinflammatory activity against carrageenan-induced paw edema rat inflammatory model assessed as paw pressure at 20 mg/kg, po after 120 mins; type: functional
# Rattus norvegicus [3] = assay: Antiinflammatory activity against carrageenan-induced paw edema rat inflammatory model assessed as paw volume at 20 mg/kg, po after 60 mins; type: functional
# [4] = target: T1, Prostaglandin G/H synthase 1 (Mus musculus, UniProt P22437)
# T1 sequence (P22437 whole entry): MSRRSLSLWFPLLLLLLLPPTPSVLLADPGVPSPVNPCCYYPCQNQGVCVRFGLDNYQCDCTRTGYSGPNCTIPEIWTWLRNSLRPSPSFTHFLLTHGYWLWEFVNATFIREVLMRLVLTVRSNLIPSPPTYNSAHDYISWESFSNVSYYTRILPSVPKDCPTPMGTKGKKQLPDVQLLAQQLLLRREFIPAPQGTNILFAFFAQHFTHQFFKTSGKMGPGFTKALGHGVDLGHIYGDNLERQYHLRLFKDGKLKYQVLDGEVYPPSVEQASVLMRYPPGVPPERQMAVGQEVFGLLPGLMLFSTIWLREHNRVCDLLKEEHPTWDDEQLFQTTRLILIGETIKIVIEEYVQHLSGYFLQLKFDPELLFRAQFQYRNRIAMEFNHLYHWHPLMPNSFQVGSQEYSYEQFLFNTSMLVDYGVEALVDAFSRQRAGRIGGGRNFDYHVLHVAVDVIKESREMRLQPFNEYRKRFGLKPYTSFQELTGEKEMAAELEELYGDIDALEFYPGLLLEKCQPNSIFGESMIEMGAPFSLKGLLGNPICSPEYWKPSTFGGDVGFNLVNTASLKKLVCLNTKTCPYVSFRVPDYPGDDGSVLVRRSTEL
# Description: Inhibition of COX1-dependent PGE2 production in LPS-stimulated mouse J774 cells by RIA
# Rattus norvegicus [5] = assay: Antiinflammatory activity against carrageenan-induced paw edema rat inflammatory model assessed as paw pressure at 20 mg/kg, po after 60 mins; type: functional
# Rattus norvegicus [6] = assay: Antiinflammatory activity against carrageenan-induced paw edema rat inflammatory model assessed as paw pressure at 20 mg/kg, po after 30 mins; type: functional
# Rattus norvegicus [7] = assay: Antiinflammatory activity against carrageenan-induced paw edema rat inflammatory model assessed as suppression of paw edema at 20 mg/kg, po after 60 mins; type: functional
# [8] = target: T2, Prostaglandin G/H synthase 2 (Mus musculus, UniProt Q05769)
# T2 sequence (Q05769 whole entry): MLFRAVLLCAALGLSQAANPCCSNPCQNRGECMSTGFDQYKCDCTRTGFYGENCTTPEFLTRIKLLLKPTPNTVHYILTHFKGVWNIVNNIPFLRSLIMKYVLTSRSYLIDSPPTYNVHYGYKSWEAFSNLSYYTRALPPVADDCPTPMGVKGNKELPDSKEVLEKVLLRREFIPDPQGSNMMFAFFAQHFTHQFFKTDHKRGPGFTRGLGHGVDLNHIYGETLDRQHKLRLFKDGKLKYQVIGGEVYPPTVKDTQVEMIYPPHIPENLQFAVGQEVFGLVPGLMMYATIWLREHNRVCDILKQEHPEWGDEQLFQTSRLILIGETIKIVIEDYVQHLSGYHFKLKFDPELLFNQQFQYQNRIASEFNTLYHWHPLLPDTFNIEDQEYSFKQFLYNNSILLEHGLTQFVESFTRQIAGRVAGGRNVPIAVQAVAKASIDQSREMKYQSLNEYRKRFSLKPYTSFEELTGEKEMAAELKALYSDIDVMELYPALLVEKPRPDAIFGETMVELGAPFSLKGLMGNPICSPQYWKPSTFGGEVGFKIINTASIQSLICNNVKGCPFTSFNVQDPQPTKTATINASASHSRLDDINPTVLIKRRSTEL
# Description: Inhibition of COX2-dependent PGE2 production in LPS-stimulated mouse J774 cells by RIA
# [9] = Metabolic stability in human liver microsomes at 10 uM; type: ADME, Microsome; settings: read-out: Stability
# [10] = Metabolic stability in human liver microsomes at 0.1 uM; type: ADME, Microsome; settings: read-out: Stability
# [11] = target: T3, Prostaglandin G/H synthase 2 (Homo sapiens, UniProt P35354); assay: Inhibition of COX2 in human whole blood assessed as inhibition of LPS-induced PGE2 production by RIA; type: tissue-based
# T3 sequence (P35354 whole entry): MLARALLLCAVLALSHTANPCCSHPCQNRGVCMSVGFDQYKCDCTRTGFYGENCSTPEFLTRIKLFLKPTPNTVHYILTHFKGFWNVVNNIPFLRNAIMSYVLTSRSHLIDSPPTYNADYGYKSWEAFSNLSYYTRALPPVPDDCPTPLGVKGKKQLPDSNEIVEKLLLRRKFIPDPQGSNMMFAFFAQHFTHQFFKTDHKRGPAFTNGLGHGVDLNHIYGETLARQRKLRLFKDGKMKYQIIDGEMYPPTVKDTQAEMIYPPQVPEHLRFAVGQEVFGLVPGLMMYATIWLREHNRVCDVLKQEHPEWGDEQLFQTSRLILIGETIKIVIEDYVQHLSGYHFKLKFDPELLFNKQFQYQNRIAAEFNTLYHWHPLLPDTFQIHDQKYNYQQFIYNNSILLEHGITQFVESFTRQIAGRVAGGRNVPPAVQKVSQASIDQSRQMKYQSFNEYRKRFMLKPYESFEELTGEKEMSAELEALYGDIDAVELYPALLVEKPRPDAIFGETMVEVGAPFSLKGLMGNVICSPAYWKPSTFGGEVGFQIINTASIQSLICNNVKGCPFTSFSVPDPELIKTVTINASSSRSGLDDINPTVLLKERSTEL
# Mus musculus [12] = assay: Analgesic activity against acetic acid-induced po dosed mouse abdominal constriction assessed as writhing; settings: Abdomen
# [13] = target: Prostaglandin G/H synthase 1 (Homo sapiens, UniProt P23219); assay: Inhibition of COX1 in human whole blood assessed as thromboxane B2 production by RIA; type: tissue-based
# Mus musculus [14] = assay: Analgesic activity against acetic acid-induced mouse abdominal constriction assessed as writhing at 20 mg/kg, po; settings: Abdomen
# Mus musculus [15] = assay: Analgesic activity against acetic acid-induced mouse abdominal constriction assessed as writhing at 10 mg/kg, po; settings: Abdomen
# Rattus norvegicus [16] = species: Rattus norvegicus; assay: Analgesic activity against zymosan-induced hyperalgesia in rat assessed maximum effect measured up to 6 hrs
# Rattus norvegicus [17] = assay: Antiinflammatory activity against carrageenan-induced paw edema rat inflammatory model assessed as paw volume at 10 mg/kg, po after 60 mins
# Rattus norvegicus [18] = species: Rattus norvegicus; assay: Analgesic activity against zymosan-induced hyperalgesia in rat assessed maximum effect measured up to 2 hrs
# Prostaglandin G/H synthase 1 (Homo sapiens, UniProt P23219), sequence (P23219 whole entry): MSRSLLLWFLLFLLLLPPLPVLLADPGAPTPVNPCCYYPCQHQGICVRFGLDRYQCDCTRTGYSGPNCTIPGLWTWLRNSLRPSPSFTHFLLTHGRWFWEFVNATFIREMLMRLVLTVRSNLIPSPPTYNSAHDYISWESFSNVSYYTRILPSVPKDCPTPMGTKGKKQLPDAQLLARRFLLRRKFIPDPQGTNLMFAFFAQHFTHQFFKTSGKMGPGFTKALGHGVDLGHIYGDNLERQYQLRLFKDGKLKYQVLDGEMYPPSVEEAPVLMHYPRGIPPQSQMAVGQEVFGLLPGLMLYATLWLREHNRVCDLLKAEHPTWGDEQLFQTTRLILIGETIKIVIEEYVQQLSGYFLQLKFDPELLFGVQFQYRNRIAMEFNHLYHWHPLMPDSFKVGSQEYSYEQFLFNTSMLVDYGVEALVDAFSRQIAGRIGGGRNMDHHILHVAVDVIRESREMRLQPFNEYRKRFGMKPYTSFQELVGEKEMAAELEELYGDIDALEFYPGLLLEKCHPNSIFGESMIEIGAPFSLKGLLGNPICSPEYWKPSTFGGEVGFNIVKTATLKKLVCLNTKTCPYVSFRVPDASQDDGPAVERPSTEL
Structure (SMILES),Ratio IC50 (Mus musculus [1]),Activity (Rattus norvegicus [2]) [g],Activity (Rattus norvegicus [3]) [mL],IC50 [4] [nM],Activity (Rattus norvegicus [5]) [g],Activity (Rattus norvegicus [6]) [g],Activity (Rattus norvegicus [7]) [%],IC50 [8] [nM],remaining at 10 µM [9] [%],remaining at 0.1 µM [10] [%],IC50 [11] [nM],Activity (Mus musculus [12]),IC50 [13] [nM],Activity (Mus musculus [14]),Activity (Mus musculus [15]),Activity (Rattus norvegicus [16]) [%],Activity (Rattus norvegicus [17]) [mL],Activity (Rattus norvegicus [18]) [%]
CCOC(=O)Cc1cc(-c2ccc(S(C)(=O)=O)cc2)n(-c2ccccc2)c1C,> 2500,,,,,,,,,,,,,,,,,
COc1ccc(-n2c(-c3ccc(S(C)(=O)=O)cc3)cc(CC(=O)O)c2C)cc1,> 580,36.2,1.81,> 100000,39.8,52.3,50.9,170,84,77,,,,,,,,
Cc1c(CC(=O)OC(C)C)cc(-c2ccc(S(C)(=O)=O)cc2)n1-c1ccc(F)c(F)c1,> 4700,58.3,1.39,> 100000,52.3,64.8,89,21,13,0,,,,,,,,
Cc1c(CC(=O)OC(C)C)cc(-c2ccc(S(C)(=O)=O)cc2)n1-c1cccc(F)c1,> 2300,45.2,1.31,> 100000,57.9,59.5,87.2,43,1,0,2000,Dose-dependent effect,24000,,,,,
Cc1c(CC(=O)O)cc(-c2ccc(S(C)(=O)=O)cc2)n1-c1ccccc1,> 100,41.6,1.86,,51.8,48.6,42.7,,97,94,7000,,132000,,,,,
CCCCOC(=O)Cc1cc(-c2ccc(S(C)(=O)=O)cc2)n(-c2ccc(F)c(F)c2)c1C,> 3300,56.6,1.52,> 100000,59.2,52.7,73.6,30,15,2,,,,Active,,,,
CCCCOC(=O)Cc1cc(-c2ccc(S(C)(=O)=O)cc2)n(-c2cccc(F)c2)c1C,> 4100,45.2,1.71,> 100000,46.9,49.7,67.2,24,2,0,,,,,,,,
Cc1c(CC(=O)O)cc(-c2ccc(S(C)(=O)=O)cc2)n1-c1ccc(F)c(F)c1,38,48.6,1.42,10000,54.1,58.3,90.9,260,100,100,,,,Active,,,,
CCCCOC(=O)Cc1cc(-c2ccc(S(C)(=O)=O)cc2)n(-c2ccc(OC)cc2)c1C,> 2600,50.8,1.45,> 100000,51.4,53.4,89.1,38,2,5,,,,Active,Active,,,
Cc1c(CC(=O)O)cc(-c2ccc(S(C)(=O)=O)cc2)n1-c1cccc(F)c1,> 3500,43.1,1.35,> 100000,55.2,54.8,93.6,28,100,100,17000,Dose-dependent effect,125000,Active,,,,
COc1ccc(-n2c(-c3ccc(S(C)(=O)=O)cc3)cc(CC(=O)OC(C)C)c2C)cc1,> 4500,41.7,1.41,> 100000,56.7,51,77.2,22,1,7,,,,,,,,
CCCCOC(=O)Cc1cc(-c2ccc(S(C)(=O)=O)cc2)n(-c2ccccc2)c1C,> 7100,42.6,1.68,> 100000,46.3,52.5,66.3,14,3,7,,,,,,,,
Cc1ccc(-c2cc(C(F)(F)F)nn2-c2ccc(S(N)(=O)=O)cc2)cc1 [CELECOXIB],,55.2,,,58.2,56.5,95.5,,,,,,,,,35,1.33,30
